{"source": "patent US20220304951A1", "about": "“ANTICANCER COMPOSITIONS AND METHODS FOR USING SAME” (Lispiro LLC, priority 2021, published 2022)", "assay_type_in_all_cases": "cell-based", "key": {"[1]": {"system": "Human colon carcinoma cells (HT29)", "assay": "New fuchsine treatment of human colon carcinoma cells, H&E staining, light microscopy (Example 1)", "settings": "48 hours, H&E stain", "procedure": "(§1) 4 flasks Thermo Scientific Nunc Nunclon Delta Surface 12.5 cm (Cat.No136196) with McCoy's5A complete medium were seeded with cell culture of CRL1790 (ATCC) and 4 flasks Thermo Scientific Nunc Nunclon Delta Surface 12.5 cm (Cat.No136196) with McCoy's5A complete medium were seeded with cell culture of HT29 (ATCC) and were kept at 37 degrees 5% CO2 in CO2 incubator until it reached of 70% confluence (2 days). After reaching of 70% confluence flasks McCoy's5A medium with 10% of FBS was changed to the same medium with different concertation of new fuchsine (0 uM, 25 uM, 50 uM, 100 uM, 150 uM) (Sigma Cat. No 72200). Flasks were kept in the CO2 incubator 5% CO2, 37-degree C for additional 48 hours. After 48 hours of treatment all flasks were stained by fixed by 10% Formaldehyde and stained by H&E. After completing of the staining protocol the flasks were examined in the light microscope under magnification x100 and multiple pictures were taken using Olympus BX51 microscope and Olympus DP73 digital camera."}, "[2]": {"system": "Fibrosarcoma cells (HT-1080)", "assay": "New fuchsine treatment of human fibrosarcoma cells, H&E staining, light microscopy (Example 2)", "settings": "new fuchsine 50 uM, 12 hours, H&E stain; corresponds to empty plastic", "procedure": "(§2) 2 flasks Thermo Scientific Nunc Nunclon Delta Surface 12.5 cm (Cat. No 136196) with McCoy's5A complete medium were seeded with cell culture of CRL1790 (ATCC) and 2 flasks Thermo Scientific Nunc Nunclon Delta Surface 12.5 cm (Cat. No 136196) with DMEM complete medium were seeded with cell culture of HT1080 (ATCC) and were kept at 37 degrees 5% CO2 in CO2 incubator until it reached of 100% confluence (2 days). After reaching of 100% confluence medium with 10% of FBS was changed to the same medium with different concertation of New Fuchsin (0 uM, and 50 uM) (Sigma Cat. No 72200). Flasks were kept in the CO2 incubator 5% CO2, 37-degree C for additional 12 hours. After 12 hours of treatment all flasks were stained by fixed by 10% Formaldehyde and stained by H&E. After completing of the staining protocol the flasks were examined in the light microscope under magnification x100 and multiple pictures were taken using Olympus BX51 microscope and Olympus DP73 digital camera."}, "[3]": {"system": "normal human epithelial like cells (CRL-1790)", "assay": "New fuchsine treatment of normal human epithelial like cells, H&E staining, light microscopy (Example 2)", "settings": "all tested concentrations (50 uM), 12 hours, H&E stain", "procedure": "as §2"}, "[4]": {"system": "human colon adenocarcinoma cells (HT29)", "assay": "New fuchsine treatment of HT29 cells, Trypan blue, automatic cell counter (Example 4)", "procedure": "The general study methods of study were as follows: HT29 cells were grown in incubator at 37 degrees C. and 5% CO2 until 70% confluence was reached. After reaching of 70% confluence, medium was changed to medium with different concentration of new fuchsine (0 μM, 15 μM, 31 μM, 62 μM, 125 μM and 250 μM). Flasks were kept in the CO2 incubator (5% CO2, 37-degree C) for additional 24 hours. After 24 hours of treatment cells were detached with Trypsin, washed with fresh medium and stained with Trypan blue. Cell viability was examined in automatic cell counter (Invitrogen)."}, "[5]": {"system": "normal human epithelial like cells (CRL-1790)", "assay": "New fuchsine treatment of normal human epithelial like cells, H&E staining, light microscopy (Example 1)", "settings": "all tested concentrations (25, 50, 100, 150 uM), 48 hours, H&E stain", "procedure": "as §1"}, "[6]": {"system": "Human Cervical carcinoma cell line (HeLa)", "assay": "New fuchsine treatment of HeLa cells, Trypan blue, automatic cell counter (Example 3)", "procedure": "Hela cells were growing in incubator at 37 degrees C. and 5% CO2 until 70% confluence was reached. After reaching of 70% confluence, medium was changed to medium with different concentrations of new fuchsine (0 μM, 15 μM, 31 μM, 62 μM, 125 μM and 250 μM). Flasks were kept in the CO2 incubator (5% CO2, 37-degree C) for additional 24 hours. After 24 hours of treatment, cells were detached with Trypsin, washed with fresh medium and stained with Trypan blue. Number of cells and viability were examined in automatic cell counter (Invitrogen)."}, "[7]": {"settings": "new fuchsine 250 uM, 24 hours, Trypan blue"}}, "data": [{"smiles": "CC1=CC(=C(c2ccc(N)c(C)c2)c2ccc(N)c(C)c2)C=CC1=N.Cl", "note": "[new fuchsine, [4-[bis(4-amino-3-methylphenyl)methylidene]-2-methylcyclohexa-2,5-dien-1-ylidene]azanium; chloride]", "values": [{"measurement": "concentration at which first signs of toxicity to colon carcinoma cells (HT29) can be seen", "setting": "[1]", "result": 50, "unit": "µM"}, {"measurement": "toxicity to carcinoma cells (HT29)", "setting": "[1]; new fuchsine 150 uM, corresponds to empty plastic", "result": 100, "unit": "%"}, {"measurement": "toxicity to Fibrosarcoma cells (HT-1080)", "setting": "[2]", "result": 100, "unit": "%"}, {"measurement": "visual toxicity to normal human epithelial like cells (CRL-1790)", "setting": "[3]", "result": "did not exhibit any visual toxicity"}, {"measurement": "toxicity to human colon adenocarcinoma cells (HT29)", "setting": "[4]; all tested concentrations (15, 31, 62, 125, 250 μM), 24 hours, Trypan blue viability", "result": "did exhibit toxicity"}, {"measurement": "toxicity to colon adenocarcinoma cells (HT29)", "setting": "[4]; [7]", "result": "< 100", "unit": "%"}, {"measurement": "efficacy for colon carcinoma (HT29 cells) compared with cervical carcinoma (HeLa cells), summary", "setting": "[4]; summary of the examples", "result": "much less effective"}, {"measurement": "visual toxicity to normal human epithelial like cells (CRL-1790)", "setting": "[5]", "result": "did not exhibit any visual toxicity"}, {"measurement": "toxicity to human carcinoma cells (HeLa)", "setting": "[6]; all tested concentrations (15, 31, 62, 125, 250 μM), 24 hours, Trypan blue viability and cell count", "result": "exhibited toxicity"}, {"measurement": "toxicity to carcinoma cells (HeLa)", "setting": "[6]; [7]", "result": 100, "unit": "%"}, {"measurement": "cytotoxic effect on cervical carcinoma (HeLa cells), summary", "setting": "[6]; summary of the examples", "result": "high efficacy, dose dependent cytotoxic effect"}]}]}
